{"source": "patent US20250177364A1", "about": "“COMBINATION THERAPIES FOR BREAST CANCER” (Genentech, Inc., priority 2022, published 2025)", "key": {"[1]": {"test_system": "ER-positive, HER2-negative EBC", "conditions": "neoadjuvant; cited from earlier work"}, "[2]": {"test_system": "ER-positive, HER2-negative ABC", "conditions": "30 mg daily; previously treated patients; cited from earlier work"}, "[3]": {"test_system": "ER-positive BC cell lines", "conditions": "multiple ER-positive BC cell lines, including cells with ER mutations; cited from earlier work"}, "UACC-812 cells": {"test_system": "UACC-812 cells", "assay": "Anti-proliferative activity, growth-rate (GR) inhibition method, CyQUANT", "format": "cell-based", "conditions": "6 days after drug treatment, control GR=1, giredestrant 0.3 μM, trastuzumab and pertuzumab 30 μg/ml each", "description": "(§1) FIG. 3 depicts in vitro anti-proliferative activity of ER inhibition by giredestrant, and/or HER2 inhibition by the combination of trastuzumab and pertuzumab, assessed using the growth rate (GR) method in Example 1. Growth rate (GR) under control conditions is set to 1; lower growth rates equate to a greater anti-proliferative effect. Individual points reflect GR values at 0.3 μM giredestrant, and at […] trastuzumab and pertuzumab. Materials and Methods: ER+/HER2+ cell lines UACC-812, HCC1419 and ZR-75-30 cells were plated in 50 μL culture media in 384-well plates. Cells were incubated in humidified incubator overnight (37 degree, 5% CO2). Test materials were dispensed into 384-well plate on day 1; giredestrant was evaluated as a 9-point dose response (3-fold dose dilutions from a maximum concentration of 300 nM), and traztuzumab and pertuzumab were evaluated as a fixed dose at 30 μg/ml each. Fluorescence-based cell proliferation (CyQUANT®; ThermoFisher Scientific, Cat #C7026) readings were taken at day 1 to establish a baseline, and at 6 days following drug treatment. Analysis of the drug response was performed using the growth-rate (GR) inhibition method to avoid biases between slow and fast-growing lines (Hafner et al., Nat Methods 2016 June; 13 (6): 521-7))."}, "HCC1419 cells": {"test_system": "HCC1419 cells", "assay": "Anti-proliferative activity, growth-rate (GR) inhibition method, CyQUANT", "format": "cell-based", "conditions": "6 days after drug treatment, control GR=1, giredestrant 0.3 μM, trastuzumab and pertuzumab 30 μg/ml each", "description": "as §1"}, "ZR-75-30 cells": {"test_system": "ZR-75-30 cells", "assay": "Anti-proliferative activity, growth-rate (GR) inhibition method, CyQUANT", "format": "cell-based", "conditions": "6 days after drug treatment, control GR=1, giredestrant 0.3 μM, trastuzumab and pertuzumab 30 μg/ml each", "description": "FIG. 3 depicts in vitro anti-proliferative activity of ER inhibition by giredestrant, and/or HER2 inhibition by the combination of trastuzumab and pertuzumab, assessed using the growth rate (GR) method in Example 1. Growth rate (GR) under control conditions is set to 1; lower growth rates equate to a greater anti-proliferative effect. Individual points reflect GR values at 0.3 μM giredestrant, and at […] trastuzumab and pertuzumab.\nMaterials and Methods: ER+/HER2+ cell lines UACC-812, HCC1419 and ZR-75-30 cells were plated in 50 μL culture media in 384-well plates. Cells were incubated in humidified incubator overnight (37 degree, 5% CO2). Test materials were dispensed into 384-well plate on day 1; giredestrant was evaluated as a 9-point dose response (3-fold dose dilutions from a maximum concentration of 300 nM), and traztuzumab and pertuzumab were evaluated as a fixed dose at 30 μg/ml each. Fluorescence-based cell proliferation (CyQUANT®; ThermoFisher Scientific, Cat #C7026) readings were taken at day 1 to establish a baseline, and at 6 days following drug treatment. Analysis of the drug response was performed using the growth-rate (GR) inhibition method to avoid biases between slow and fast-growing lines (Hafner et al., Nat Methods 2016 June; 13 (6): 521-7)). […]"}, "[4]": {"test_system": "ER (ligand-binding domain of wild-type and mutant ER)", "conditions": "cited from earlier work"}}}
{"smiles": "C[C@@H]1Cc2c([nH]c3ccccc23)[C@@H](c2c(F)cc(NC3CN(CCCF)C3)cc2F)N1CC(F)(F)CO", "note": "[giredestrant, 3-((1R,3R)-1-(2,6-difluoro-4-((1-(3-fluoropropyl)azetidin-3-yl)amino)phenyl)-3-methyl-1,3,4,9-tetrahydro-2H-pyrido[3,4-b]indol-2-yl)-2,2-difluoropropan-1-ol]", "values": [{"measurement": "Ki67 suppression and complete cell cycle arrest versus anastrozole", "setting": "[1]", "result": "superior to anastrozole"}, {"measurement": "Clinical activity", "setting": "[2]", "result": "promising signs of clinical activity"}, {"measurement": "Safety", "setting": "[2]", "result": "safe"}, {"measurement": "Inhibition of proliferation", "setting": "[3]", "result": "potently inhibits"}, {"measurement": "Growth rate (GR) value", "setting": "UACC-812 cells", "result": "< 0.5"}, {"measurement": "Growth rate (GR) value", "setting": "HCC1419 cells", "result": "< 0.5"}, {"measurement": "Growth rate (GR) value", "setting": "ZR-75-30 cells", "result": "> 0.75"}, {"measurement": "Potency compared to fulvestrant, tamoxifen and other oral SERDs", "setting": "[4]; Liang et al.", "result": "higher potency"}, {"measurement": "Potency of competitive binding to the ER", "setting": "[4]; competes with estrogens", "result": "low nanomolar potency"}]}
